The text below walks through data of EP0717040A1, “Thiazine or thiazepine derivatives which inhibit NOS” (Japan Tobacco Inc., priority 1994, dated 1996).

Where a name gives a salt, the structure may show the parent alone. Read-outs that look alike come from different tables or passages of the source.

Test [1] concerns the target inducible NO synthase (iNOS) (Rattus norvegicus, UniProt Q06518). Nature of the test: Activity to inhibit inducible NO synthase (iNOS) derived from rat macrophages; conversion of [3H]-L-arginine to [3H]-L-citrulline. The format is biochemical. More on the design: iNOS was extracted from the macrophages which have been treated with lipopolysaccharide and interferon-γ; endogenous in cells; host or cells: rat peritoneal macrophages treated with lipopolysaccharide and interferon-γ. On the procedure:
Activity to inhibit inducible NO synthase (iNOS) derived from rat macrophages
According to partly modified method of Y. Yui et al.(J. Biol. Chem., 266 (19), 12544-12547 (1991)), an iNOS fraction was prepared by applying lipopolysaccharide and interferon-γ to peritoneal macrophages. Thereafter, its enzymatic activity was measured based on the conversion of [³H]-L-arginine to [³H]-L-citrulline, in the same manner as in the case of cNOS.
To the iNOS thus extracted, a 50 mM Tris-HCl buffer solution (pH 7.4) containing 150 µM L-arginine, 5 mM NADPH, 5 mM DTT, 0.5 mM 5,6,7,8-tetrahydro-L-biopterin and 5 µM FAD was added together with a test compound and [³H]-L-arginine. The mixture was incubated for 30 minutes at 37°C. Thereafter, the reaction was terminated by adding a 25 mM sodium acetate buffer solution (pH 5.5) containing 1.25 mM L-citrulline, 2.5 mM EDTA and 0.25 mM EGTA. The reaction solution was passed through a cation-exchange resin. The obtained eluate was combined with the additional eluate obtained thereafter by eluting with water, and the radioactivity of the combined eluate was measured. The inhibition rate of the test compound on iNOS was calculated in the same manner as in Test 1. The concentration (IC₅₀) of the test compound required for inhibiting 50 % of the enzyme activity, were calculated.

Test [2] addresses T1, constitutive NO synthase (cNOS) (Rattus norvegicus, UniProt P29476).
T1 construct: cNOS was extracted from a rat cerebellum; from tissue; host or cells: rat cerebellum
The experiment in a line: Activity to inhibit constitutive NO synthase (cNOS) derived from rat cerebellum; conversion of [3H]-L-arginine to [3H]-L-citrulline. The format is biochemical. On the procedure:
Activity to inhibit constitutive NO synthase (cNOS) derived from rat cerebellum
The inhibition activity was tested according to a method of P. A. Bush et al. (Biochem, Biophys, Res. Commun., 185, 960-966 (1992)), using [³H]-L-arginine as a substrate and taking the conversion of [³H]-L-arginine to [³H]-L-citrulline as an index of the enzyme activity.
The test was conducted as follows: First, cNOS was extracted from a rat cerebellum with a 50 mM Tris-HCl buffer solution (pH 7.4) which contains 0.1 mM EDTA (ethylenediamine tetraacetate), 0.1 mM EGTA (ethyleneglycol bis(β-aminoethyl ether)-tetraacetate), 0.5 mM DTT (dithiothreitol), 1 µM PMSF (phenylmethylsulfonyl fluoride), 1 µM bestatin A, and 1 µM leupeptin. To the cNOS thus extracted, a 50 mM Tris-HCl buffer solution (pH 7.4) containing 10 µM L-arginine, 10 µM NADPH, 2 mM calcium chloride and calmoduline (0.1 µg), together with a test compound and [³H]-L-arginine were added. The mixture was incubated for 10 minutes at 25°C. The reaction was terminated by adding 20 mM sodium acetate buffer solution (pH 5.5) containing 1 mM L-citrulline, 2 mM EDTA, and 0.2 mM EGTA. The reaction solution was passed through a cation-exchange resin. This eluate was combined with another eluate which was obtained thereafter by eluting with water. To the combined eluate, a liquid scintillation cocktail was further added and its radioactivity (A) was measured. At the same time, the radioactivity (B) with respect to the case where the test compound was not added and the radioactivity (C) with respect to the case where an enzyme fraction was not added, were respectively measured. Then, the rate of cNOS inhibition was calculated in accordance with the following equation. The concentration (IC₅₀), at which the test compound can inhibit 50 % of the enzyme activity, were also calculated. Inhibition rate (%) = {1 - (A - C/B - C)} × 100 [formula]

The mark [3] stands for this setting: iNOS from peritoneal macrophages treated with lipopolysaccharide and interferon-γ, 150 µM L-arginine, 30 minutes at 37°C, read-out: IC₅₀.
Setting [4] is: cNOS extracted from rat cerebellum, 10 µM L-arginine, 10 minutes at 25°C, read-out: IC₅₀.

With `CC1CC(OCc2ccccc2)N=C(N)S1` (stereo not drawn) [Example 27, Bis(2-amino-4-benzyloxy-5,6-dihydro-6-methyl-4H-1,3-thiazine), fumarate], the IC50 in test [1] and in test [2] was 400 nM in each case.

Take `NC1=NC(O)CCS1` (stereo not drawn) [Example 17, 2-amino-5,6-dihydro-4-hydroxyl-4H-1,3-thiazine hydrochloride]: the IC50 in test [1] (setting [3]) was 50 nM; in test [2] (setting [4]), 20 nM.

`CC(C)[C@@H]1CCSC(N)=N1` [Example 1, (S)-2-amino-5,6-dihydro-4-isopropyl-4H-1,3-thiazine hydrobromide]: the IC50 in test [1] (setting [3]) was 300 nM; in test [2] (setting [4]), 20 nM.

In the case of `CCCC[C@H]1CCSC(N)=N1` [Example 6, (S)-2-amino-4-butyl-5,6-dihydro-4H-1,3-thiazine hydrobromide], the IC50 in test [1] (setting [3]) worked out at 70 nM; in test [2] (setting [4]), 30 nM.

As to `NC1=NC(OCCc2ccccc2)CCS1` (stereo not drawn) [Example 25, Bis(2-amino-5,6-dihydro-4-(2-phenyl)ethyloxy-4H-1,3-thiazine) fumarate], the values for the IC50 in test [1] and in test [2] were 300 nM and 100 nM, respectively.

For `CC(C)[C@H]1CCSC(N)=N1` [Example 2, (R)-2-amino-5,6-dihydro-4-isopropyl-4H-1,3-thiazine hydrobromide], the IC50 in test [2] (setting [4]) is 300 nM.

In the case of `CC(C)C[C@H]1CCSC(N)=N1` [Example 8, (S)-2-amino-5,6-dihydro-4-isobutyl-4H-1,3-thiazine hydrobromide], the IC50 is 70 nM in test [1] (setting [3]) and 80 nM in test [2] (setting [4]).

Turning to `CC1CCCSC(N)=N1` (stereo not drawn) [Example 12, Bis(2-amino-4,5,6,7-tetrahydro-4-methyl-1,3-thiazepine) fumarate], the IC50 was 70 nM in test [1] and 100 nM in test [2].

Regarding `CCCOC1CCSC(N)=N1` (stereo not drawn) [Example 19, 2-amino-5,6-dihydro-4-propyloxy-4H-1,3-thiazine hydrochloride], the figures for the IC50 in test [1] (setting [3]) and in test [2] (setting [4]) were 30 nM and 40 nM, respectively.

`COC1CCSC(N)=N1` (stereo not drawn) [Example 18, Bis(2-amino-5,6-dihydro-4-methoxy-4H-1,3-thiazine) fumarate]: the figures for the IC50 in test [1] and in test [2] were 10 nM and 20 nM, respectively.

Regarding `NC1=NCCS1` [Comparative Example 1, 2-aminothiazoline, reference compound], the IC50 in test [1] worked out at 2000 nM.

Take `NC1=N[C@@H](Cc2ccccc2)CCS1` [Example 10, (S)-2-amino-4-benzyl-5,6-dihydro-4H-1,3-thiazine hydrobromide]: the figures for the IC50 in test [1] and in test [2] were 600 nM and 30 nM, respectively.

For the molecule `NC1=NC(OCc2ccccc2)CCS1` (stereo not drawn) [Example 22, Bis(2-amino-4-benzyloxy-5,6-dihydro-4H-1,3-thiazine) fumarate], the IC50 was 600 nM in test [1] and 100 nM in test [2].

As to `CC1(C)CN=C(N)SC1` [Example 16, 2-amino-5,6-dihydro-5,5-dimethyl-4H-1,3-thiazine hydrobromide], the IC50 in test [1] (setting [3]) amounted to 500 nM; in test [2] (setting [4]) it was 200 nM.

Turning to `CC(C)C[C@@H]1CCSC(N)=N1` [Example 7, (R)-2-amino-5,6-dihydro-4-isobutyl-4H-1,3-thiazine hydrobromide], the IC50 in test [1] (setting [3]) came out at 70 nM; in test [2] (setting [4]), 40 nM.

With `CC1CN=C(N)SC1` (stereo not drawn) [Example 28, 2-amino-5,6-dihyro-5-methyl-4H-1,3-thiazine hydrobromide], the IC50 in test [1] was 200 nM; in test [2], 100 nM.

As for `NC1=N[C@H](Cc2ccccc2)CCS1` [Example 9, (R)-2-amino-4-benzyl-5,6-dihydro-4H-1,3-thiazine hydrobromide], the IC50 in test [2] came out at 200 nM.

For the molecule `CCC[C@@H]1CCCSC(N)=N1` [Example 13, (R)-2-amino-4,5,6,7-tetrahydro-4-propyl-1,3-thiazepine hydrobromide], the IC50 in test [2] (setting [4]) worked out at 300 nM.

“(R)-2-amino-4-benzyl-4,5,6,7-tetrahydro-1,3-thiazepine hydrobromide [Example 15]”: the IC50 in test [2] (setting [4]) was 600 nM.
